Patent US20220339143A1, “TAK-925 FOR USE IN TREATING NARCOLEPSY” (Takeda Pharmaceutical Company Limited, priority 2019, published 2022)
Entries after “also recorded” stand apart in the source; their conditions may differ. Read-outs that look alike come from different tables or passages of the source.

Assay: Single dose PK in patients with narcolepsy (Cohorts 5, 6 and 7), plasma
Format: in vivo, human
Conditions: for AUC(0-inf) / AUC(0-t) / Cmax / AUC / concentration at 9 h / Tmax / Vd / clearance / concentration at 1 h / concentration at 2 h / concentration at 4 h / concentration at 6 h: human, plasma; for AUC: read-out: AUC24
Method: This study investigates (i) the safety and tolerability of Compound A (methyl (2R,3S)-3-((methylsulfonyl)amino)-2-(((cis-4-phenylcyclohexyl)oxy)methyl)piperidine-1-carboxylate) when a single dose given as a 9 hour continuous IV infusion is administered to healthy adults, healthy elderly subjects and patients with narcolepsy type 1 (NT1); (ii) the pharmacokinetics of Compound A when a single dose given as a 9 hour continuous IV infusion is administered to healthy adults, healthy elderly subjects and patients with narcolepsy type 1; and (iii) the pharmacodynamics (PD) effects of Compound A, primarily by evaluation of the sleep latency on MWT when a single dose given as a 9 hour continuous IV infusion is administered to patients with narcolepsy type 1.
In Part 2, NT1 patients received a single dose of Compound A or placebo administered as a continuous IV infusion over a 9-hour period during the day. A 40-minute Maintenance of Wakefulness Test (MWT) was conducted 4 times during the continuous IV infusion to assess effects on wakefulness in soporific conditions at 2, 4, 6 and 8 hours from start of infusion. Three cohorts of patients were enrolled (n=14 total).
Pharmacokinetics: Concentrations of Compound A in plasma, and CSF, and pharmacokinetics parameters.
On average, the time to reach the plateau appeared to be approximately 4 hours after the start of infusion. […] After switching off the IV infusion, Compound A plasma concentrations declined rapidly and in a biphasic manner with a mean terminal disposition phase t1/2z ranging approximately from 3.5 to 4.1 hours across the doses.

[1] = Cmpd A 5 mg, Mean, Cohort 5, 6, 7
[2] = Cmpd A 5 mg, Median, Cohort 5, 6, 7
[3] = Cmpd A 11.2 mg, Mean, Cohort 5, 6, 7
[4] = Cmpd A 11.2 mg, Median, Cohort 5, 6, 7
[5] = Cmpd A 44.8 mg, Mean, Cohort 5, 6, 7
[6] = Cmpd A 44.8 mg, Median, Cohort 5, 6, 7
[7] = intravenous, 5 mg, Cmpd A 5 mg, Geo Mean, Cohort 5, 6, 7
[8] = intravenous, 5 mg, Cmpd A 5 mg, Mean, Cohort 5, 6, 7
[9] = intravenous, 5 mg, Cmpd A 5 mg, Median, Cohort 5, 6, 7
[10] = intravenous, 11.2 mg, Cmpd A 11.2 mg, Geo Mean, Cohort 5, 6, 7
[11] = intravenous, 11.2 mg, Cmpd A 11.2 mg, Mean, Cohort 5, 6, 7
[12] = intravenous, 11.2 mg, Cmpd A 11.2 mg, Median, Cohort 5, 6, 7
[13] = intravenous, 44.8 mg, Cmpd A 44.8 mg, Geo Mean, Cohort 5, 6, 7
[14] = intravenous, 44.8 mg, Cmpd A 44.8 mg, Mean, Cohort 5, 6, 7
[15] = intravenous, 44.8 mg, Cmpd A 44.8 mg, Median, Cohort 5, 6, 7
[16] = iv, 5 mg, NT1, single 9 h IV infusion, read-out: Plasma concentration, Mean
[17] = iv, 5 mg, NT1, single 9 h IV infusion, read-out: Plasma concentration, Median
[18] = iv, 11.2 mg, NT1, single 9 h IV infusion, read-out: Plasma concentration, Mean
[19] = iv, 11.2 mg, NT1, single 9 h IV infusion, read-out: Plasma concentration, Median
[20] = iv, 44.8 mg, NT1, single 9 h IV infusion, read-out: Plasma concentration, Mean
[21] = iv, 44.8 mg, NT1, single 9 h IV infusion, read-out: Plasma concentration, Median

With `COC(=O)N1CCC[C@H](NS(C)(=O)=O)[C@@H]1CO[C@H]1CC[C@@H](c2ccccc2)CC1` [Compound A, methyl (2R,3S)-3-((methylsulfonyl)amino)-2-(((cis-4-phenylcyclohexyl)oxy)methyl)piperidine-1-carboxylate] the “AUCinf D” value [1] was 17.88 ng·h/mL/mg, the CL [1] was 57.05 L/h and the “Cmax D” value [1] was 2.050 ng/mL/mg. The t½z [1] was 3.465 h, the “AUCinf D” value [2] was 18.20 ng·h/mL/mg and the “Cmax D” value [2] was 2.000 ng/mL/mg. For the same compound, the Vz [2] was 284.5 L, the t½z [2] was 3.380 h and the “AUCinf D” value [3] was 17.95 ng·h/mL/mg. For the same compound, the “Cmax D” value [3] was 1.963 ng/mL/mg, the Vss [3] was 114.1 L and the Vz [3] was 316.8 L. For the same compound, the t½z [3] was 3.923 h, the “AUCinf D” value [4] was 18.05 ng·h/mL/mg and the “Cmax D” value [4] was 1.990 ng/mL/mg. For the same compound, the Vss [4] was 113.5 L, the Vz [4] was 336.5 L and the t½z [4] was 4.020 h. For the same compound, the “AUCinf D” value [5] was 21.45 ng·h/mL/mg, the “Cmax D” value [5] was 2.195 ng/mL/mg and the t½z [5] was 4.130 h. The “AUCinf D” value [6] was 20.80 ng·h/mL/mg, the “Cmax D” value [6] was 2.170 ng/mL/mg and the t½z [6] was 3.885 h. For the same compound, the “systemic exposures and clearance in NT1 patients vs healthy adults” value (IV administration) was “consistent with those observed in healthy adults; also recorded: comparable with those observed in healthy adults”, the “dose proportionality of mean plasma systemic exposure” value (doses of 5 to 44.8 mg, NT1 patients) was “increased approximately dose proportionally” and the AUC(0-inf) [7] was 88.5 ng·h/mL. For the same compound, the AUC(0-t) [7] was 86.2 ng·h/mL, the Cmax [7] was 10.1 ng/mL and the AUC [7] was 88 ng·h/mL. It also gave a concentration at 9 h (intravenous, 5 mg, Cmpd A 5 mg, Geo Mean, Cohort 5, 6, 7, read-out: Ceoi) of 9.65 ng/mL, an AUC(0-inf) [8] of 89.3 ng·h/mL and an AUC(0-t) [8] of 87.2 ng·h/mL. The Cmax [8] was 10.2 ng/mL, the Tmax [8] was 8 h and the AUC [8] was 88.8 ng·h/mL. It also gave a concentration at 9 h (intravenous, 5 mg, Cmpd A 5 mg, Mean, Cohort 5, 6, 7, read-out: Ceoi) of 9.71 ng/mL, a Vd (intravenous, 5 mg, Cmpd A 5 mg, Mean, Cohort 5, 6, 7, read-out: Vss) of 112 L and a Vd (intravenous, 5 mg, Cmpd A 5 mg, Mean, Cohort 5, 6, 7, read-out: Vz) of 282 L. For the same compound, the AUC(0-inf) [9] was 91.1 ng·h/mL, the AUC(0-t) [9] was 89.2 ng·h/mL and the Cmax [9] was 9.99 ng/mL. It also gave a Tmax [9] of 9 h, an AUC [9] of 90.8 ng·h/mL and a clearance (intravenous, 5 mg, Cmpd A 5 mg, Median, Cohort 5, 6, 7, read-out: CL (converted)) of 915 mL/min. For the same compound, the concentration at 9 h (intravenous, 5 mg, Cmpd A 5 mg, Median, Cohort 5, 6, 7, read-out: Ceoi) was 9.99 ng/mL, the Vd (intravenous, 5 mg, Cmpd A 5 mg, Median, Cohort 5, 6, 7, read-out: Vss) was 110 L and the AUC(0-inf) [10] was 201 ng·h/mL. It also gave an AUC(0-t) [10] of 199 ng·h/mL, a Cmax [10] of 21.9 ng/mL and an AUC [10] of 199 ng·h/mL. The concentration at 9 h (intravenous, 11.2 mg, Cmpd A 11.2 mg, Geo Mean, Cohort 5, 6, 7, read-out: Ceoi) was 21.2 ng/mL, the AUC(0-inf) [11] was 201 ng·h/mL and the AUC(0-t) [11] was 199 ng·h/mL. For the same compound, the Cmax [11] was 22 ng/mL, the Tmax [11] was 7.75 h and the AUC [11] was 199 ng·h/mL. It also gave a clearance (intravenous, 11.2 mg, Cmpd A 11.2 mg, Mean, Cohort 5, 6, 7, read-out: CL (converted)) of 932 mL/min, a concentration at 9 h (intravenous, 11.2 mg, Cmpd A 11.2 mg, Mean, Cohort 5, 6, 7, read-out: Ceoi) of 21.2 ng/mL and an AUC(0-inf) [12] of 202 ng·h/mL. It also gave an AUC(0-t) [12] of 200 ng·h/mL, a Cmax [12] of 22.3 ng/mL and a Tmax [12] of 9 h. The AUC [12] was 200 ng·h/mL, the clearance (intravenous, 11.2 mg, Cmpd A 11.2 mg, Median, Cohort 5, 6, 7, read-out: CL (converted)) was 924 mL/min and the concentration at 9 h (intravenous, 11.2 mg, Cmpd A 11.2 mg, Median, Cohort 5, 6, 7, read-out: Ceoi) was 21.9 ng/mL. It also gave an AUC(0-inf) [13] of 925 ng·h/mL, an AUC(0-t) [13] of 911 ng·h/mL and a Cmax [13] of 96.5 ng/mL. For the same compound, the AUC [13] was 911 ng·h/mL, the concentration at 9 h (intravenous, 44.8 mg, Cmpd A 44.8 mg, Geo Mean, Cohort 5, 6, 7, read-out: Ceoi) was 94 ng/mL and the AUC(0-inf) [14] was 959 ng·h/mL. It also gave an AUC(0-t) [14] of 941 ng·h/mL, a Cmax [14] of 98.3 ng/mL and a Tmax [14] of 6.5 h. The AUC [14] was 941 ng·h/mL, the clearance (intravenous, 44.8 mg, Cmpd A 44.8 mg, Mean, Cohort 5, 6, 7, read-out: CL (converted)) was 836 mL/min and the concentration at 9 h (intravenous, 44.8 mg, Cmpd A 44.8 mg, Mean, Cohort 5, 6, 7, read-out: Ceoi) was 96.2 ng/mL. For the same compound, the Vd (intravenous, 44.8 mg, Cmpd A 44.8 mg, Mean, Cohort 5, 6, 7, read-out: Vss) was 117 L, the Vd (intravenous, 44.8 mg, Cmpd A 44.8 mg, Mean, Cohort 5, 6, 7, read-out: Vz) was 281 L and the AUC(0-inf) [15] was 930 ng·h/mL. For the same compound, the AUC(0-t) [15] was 919 ng·h/mL, the Cmax [15] was 97 ng/mL and the Tmax [15] was 6.5 h. The AUC [15] was 919 ng·h/mL, the clearance (intravenous, 44.8 mg, Cmpd A 44.8 mg, Median, Cohort 5, 6, 7, read-out: CL (converted)) was 809 mL/min and the concentration at 9 h (intravenous, 44.8 mg, Cmpd A 44.8 mg, Median, Cohort 5, 6, 7, read-out: Ceoi) was 95.2 ng/mL. For the same compound, the Vd (intravenous, 44.8 mg, Cmpd A 44.8 mg, Median, Cohort 5, 6, 7, read-out: Vss) was 116 L, the Vd (intravenous, 44.8 mg, Cmpd A 44.8 mg, Median, Cohort 5, 6, 7, read-out: Vz) was 282 L and the concentration at 1 h [16] was 6.38 ng/mL. For the same compound, the concentration at 1 h [17] was 6.25 ng/mL, the concentration at 2 h [16] was 8.75 ng/mL and the concentration at 2 h [17] was 9.15 ng/mL. It also gave a concentration at 4 h [16] of 10.1 ng/mL, a concentration at 4 h [17] of 9.62 ng/mL and a concentration at 6 h [16] of 7.91 ng/mL. The concentration at 6 h [17] was 7.97 ng/mL, the concentration at 9 h (iv, 5 mg, 9 hr, NT1, single 9 h IV infusion, read-out: Plasma concentration, Mean) was 9.64 ng/mL and the concentration at 9 h (iv, 5 mg, 9 hr, NT1, single 9 h IV infusion, read-out: Plasma concentration, Median) was 9.96 ng/mL. For the same compound, the concentration at 1 h [18] was 14.4 ng/mL, the concentration at 1 h [19] was 14.3 ng/mL and the concentration at 2 h [18] was 17.3 ng/mL. It also gave a concentration at 2 h [19] of 17.1 ng/mL, a concentration at 4 h [18] of 21.5 ng/mL and a concentration at 4 h [19] of 21.5 ng/mL. For the same compound, the concentration at 6 h [18] was 19.5 ng/mL, the concentration at 6 h [19] was 19.8 ng/mL and the concentration at 9 h (iv, 11.2 mg, 9 hr, NT1, single 9 h IV infusion, read-out: Plasma concentration, Mean) was 21.2 ng/mL. It also gave a concentration at 9 h (iv, 11.2 mg, 9 hr, NT1, single 9 h IV infusion, read-out: Plasma concentration, Median) of 21.9 ng/mL, a concentration at 1 h [20] of 61.5 ng/mL and a concentration at 1 h [21] of 56.5 ng/mL. The concentration at 2 h [20] was 74.1 ng/mL, the concentration at 2 h [21] was 76.3 ng/mL and the concentration at 4 h [20] was 96 ng/mL. For the same compound, the concentration at 4 h [21] was 92.9 ng/mL, the concentration at 6 h [20] was 90 ng/mL and the concentration at 6 h [21] was 88.3 ng/mL. For the same compound, the concentration at 9 h (iv, 44.8 mg, 9 hr, NT1, single 9 h IV infusion, read-out: Plasma concentration, Mean) was 96.2 ng/mL, the concentration at 9 h (iv, 44.8 mg, 9 hr, NT1, single 9 h IV infusion, read-out: Plasma concentration, Median) was 95.2 ng/mL and the clearance (iv, IV administration, NT1 patients, read-out: mean estimates of plasma clearance) was 833 to 950 mL/min. The “time to reach the plateau of plasma concentration after the start of infusion” value (single 9 h IV infusion, 5 to 44.8 mg, NT1 patients) was “approximately 4 hours”.
